Laboratory results from ChEMBL document CHEMBL4665709, “Rational Avoidance of Protease Cleavage Sites and Symmetrical End-Tagging Significantly Enhances the Stability and Therapeutic Potential of Antimicrobial Peptides” (J Med Chem, 2020).
Converted amounts (≈) assume the structure as drawn. The source made the active and inactive calls. No cut-off for these calls is given here. Where a SMILES comes first, the peptide text is derived from it.

How the values were obtained:
[1] = Toxicity in C57BL/6 mouse assessed as change in body weigh at 20 mg/kg, ip measured for 5 days; assay type: organism-based; conditions: in vivo, 120 h, time 5 day
[2] = system: Cell membrane; assay: Disruption of membrane integrity in Escherichia coli ATCC 25922 assessed as induction of membrane rupture at 2 times MIC after 1 hr by PI-staining based flow cytometry analysis relative to control
[3] = Toxicity in C57BL/6 mouse assessed as effect on creatinine level at 20 mg/kg, ip measured after 5 days; assay type: organism-based; conditions: in vivo, 120 h, time 5 day
[4] = system: Staphylococcus aureus; assay: Antibacterial activity against Staphylococcus aureus ATCC 29213 after 18 to 24 hrs in presence of 8 uM Zn2+ by CLSI-based broth microdilution method; assay type: functional; conditions: time hrs 18-24
[5] = system: Escherichia coli; assay: Antibacterial activity against Escherichia coli ATCC 25922 infected in C57BL/6 mouse assessed as reduction in bacterial load in liver at 10 mg/kg, ip measured after 11 hrs (reference value: 7.12 log CFU/g); assay type: functional
[6] = Therapeutic index, ratio of MHC for human RBC to geometric mean of peptide MIC for Streptococcus agalactiae H92; assay type: toxicity; conditions: human red blood cells (RBC), read-out: TI
[7] = system: Staphylococcus aureus; assay: Antibacterial activity against Staphylococcus aureus ATCC 29213 after 18 to 24 hrs in presence of 6 uM Fe3+ by CLSI-based broth microdilution method; assay type: functional; conditions: time hrs 18-24
[8] = Stability of compound assessed as proteinase K (unknown origin)-mediated drug degradation after 8 hrs by SDS-PAGE analysis; assay type: ADME; conditions: human
[9] = system: Escherichia coli; assay: Antibacterial activity against Escherichia coli ATCC 25922 infected in C57BL/6 mouse assessed as reduction in lesion in liver at 10 mg/kg, ip measured after 11 hrs by hematoxylin and eosin staining based assay; assay type: functional, organism-based
[10] = system: Escherichia coli; assay: Antibacterial activity against Escherichia coli ATCC 25922 after 18 to 24 hrs in presence of 1 mM Mg2+ by CLSI-based broth microdilution method; assay type: functional; conditions: time hrs 18-24
[11] = system: Staphylococcus aureus; assay: Antibacterial activity against Staphylococcus aureus ATCC 29213 after 18 to 24 hrs in presence of 100% human serum by CLSI-based broth microdilution method; assay type: functional; conditions: time hrs 18-24
[12] = Therapeutic index, ratio of MHC for human RBC to geometric mean of peptide MIC for Salmonella pullorum 7913; assay type: toxicity; conditions: human red blood cells (RBC), read-out: TI
[13] = Therapeutic index, ratio of MHC for human RBC to geometric mean of peptide MIC for Enterococcus faecalis ATCC 29212; assay type: toxicity; conditions: human red blood cells (RBC), read-out: TI
[14] = system: Escherichia coli; assay: Antibacterial activity against Escherichia coli ATCC 25922 measured after 18 to 24 hrs in presence of chymotrypsin by CLSI-based broth microdilution method; assay type: functional, organism-based; conditions: time hrs 18-24
[15] = system: Staphylococcus aureus; assay: Antibacterial activity against Staphylococcus aureus 11011 after 18 to 24 hrs by CLSI-based broth microdilution method; assay type: functional; conditions: time hrs 18-24
[16] = system: Escherichia coli; assay: Antibacterial activity against Escherichia coli ATCC 25922 after 18 to 24 hrs in presence of 50% human serum by CLSI-based broth microdilution method; assay type: functional; conditions: time hrs 18-24
[17] = Hemolytic activity in human RBC assessed as hemolysis at 1 to 128 uM relative to control; assay type: ADME, cell-based, Erythrocyte; conditions: human red blood cells (RBC), dose 1-128 µM, read-out: Activity
[18] = system: Escherichia coli; assay: Antibacterial activity against Escherichia coli ATCC 25922 infected in C57BL/6 mouse assessed as reduction in inflammatory cell infiltration in lung at 10 mg/kg, ip measured after 11 hrs by hematoxylin and eosin staining based assay; assay type: functional, organism-based
[19] = system: Escherichia coli; assay: Antibacterial activity against Escherichia coli ATCC 25922 infected in C57BL/6 mouse assessed as reduction in IL-1beta level in serum at 10 mg/kg, ip measured after 11 hrs by ELISA; assay type: functional, organism-based
[20] = Toxicity in C57BL/6 mouse assessed as effect on total bilirubin level at 10 mg/kg, ip measured after 5 days; assay type: organism-based; conditions: in vivo, 120 h, time 5 day
[21] = Stability of compound assessed as pepsin (unknown origin)-mediated drug degradation after 8 hrs by RP-HPLC analysis; assay type: ADME; conditions: human
[22] = system: Cell membrane; assay: Induction of structural changes in membrane of Staphylococcus aureus ATCC 29213 assessed as sparsity at 1 times MIC after 1 hr by transmission electron microscopy; assay type: subcellular
[23] = system: Cell membrane; assay: Induction of membrane permeabilization in Escherichia coli ATCC 25922 after 1 hr by PI fluorescence staining-based confocal microscopy analysis
[24] = Toxicity in C57BL/6 mouse assessed as effect on alanine aminotransferase level at 20 mg/kg, ip measured after 5 days; assay type: organism-based; conditions: in vivo, 120 h, time 5 day
[25] = system: Enterococcus faecalis; assay: Antibacterial activity against Enterococcus faecalis ATCC 29212 after 18 to 24 hrs by CLSI-based broth microdilution method; assay type: functional; conditions: time hrs 18-24
[26] = system: Cell membrane; assay: Induction of structural changes in membrane of Escherichia coli ATCC 25922 assessed as outer membrane separation at 1 times MIC after 1 hr by transmission electron microscopy; assay type: subcellular
[27] = system: Cell membrane; assay: Induction of morpholoical changes in membrane of Staphylococcus aureus ATCC 29213 assessed as fragmentation in bacterial membrane at 1 times MIC after 1 hr by scanning electron microscopy; assay type: subcellular
[28] = system: Cell membrane; assay: Disruption of membrane integrity in Escherichia coli ATCC 25922 assessed as induction of membrane rupture at 0.5 to 2 times MIC after 1 hr by SYTO-9/PI-staining based fluorescence microscopy
[29] = Toxicity in C57BL/6 mouse assessed as effect on alanine aminotransferase level at 10 mg/kg, ip measured after 5 days; assay type: organism-based; conditions: in vivo, 120 h, time 5 day
[30] = system: Cell membrane; assay: Induction of morpholoical changes in membrane of Escherichia coli ATCC 25922 assessed as breakage in bacterial membrane at 1 times MIC after 1 hr by scanning electron microscopy
[31] = system: Staphylococcus aureus; assay: Antibacterial activity against Staphylococcus aureus ATCC 29213 after 18 to 24 hrs by CLSI-based broth microdilution method; assay type: functional; conditions: time hrs 18-24
[32] = system: Cell membrane; assay: Disruption of membrane integrity in Staphylococcus aureus ATCC 29213 assessed as induction of membrane rupture at 2 times MIC after 1 hr by PI-staining based flow cytometry analysis
[33] = system: Staphylococcus aureus; assay: Antibacterial activity against Staphylococcus aureus ATCC 29213 after 18 to 24 hrs in presence of 50% human serum by CLSI-based broth microdilution method; assay type: functional; conditions: time hrs 18-24
[34] = system: Escherichia coli; assay: Antibacterial activity against Escherichia coli ATCC 25922 infected in C57BL/6 mouse assessed as reduction in bacterial load in spleen at 10 mg/kg, ip measured after 11 hrs (reference value: 6.02 log CFU/g); assay type: functional
[35] = system: Streptococcus agalactiae; assay: Antibacterial activity against Streptococcus agalactiae H92 after 18 to 24 hrs by CLSI-based broth microdilution method; assay type: functional; conditions: time hrs 18-24
[36] = system: Escherichia coli; assay: Antibacterial activity against Escherichia coli ATCC 25922 infected in C57BL/6 mouse assessed as reduction in IL-6 level in serum at 10 mg/kg, ip measured after 11 hrs by ELISA; assay type: functional, organism-based
[37] = Therapeutic index, ratio of MHC for human RBC to geometric mean of peptide MIC for Staphylococcus aureus 11011; assay type: toxicity; conditions: human red blood cells (RBC), read-out: TI
[38] = system: Escherichia coli; assay: Antibacterial activity against Escherichia coli ATCC 25922 measured after 18 to 24 hrs in presence of proteinase K by CLSI-based broth microdilution method; assay type: functional, organism-based; conditions: time hrs 18-24
[39] = system: Escherichia coli; assay: Antibacterial activity against Escherichia coli ATCC 25922 measured after 18 to 24 hrs in presence of pepsin by CLSI-based broth microdilution method; assay type: functional, organism-based; conditions: time hrs 18-24

In the case of CC[C@H](C)[C@H](N)C(=O)N[C@H](C(=O)N[C@H](C(=O)N[C@@H](CS)C(=O)N[C@@H](CCCNC(=N)N)C(=O)N[C@@H](CCCCN)C(=O)N1CCC[C@H]1C(=O)N[C@H](C(=O)N[C@H](C(=O)N[C@@H](CS)C(=O)N[C@@H](CCCNC(=N)N)C(=O)N[C@@H](CCCCN)C(=O)N1CCC[C@H]1C(=O)N[C@H](C(=O)N[C@H](C(=O)N[C@@H](CS)C(=O)N[C@@H](CCCNC(=N)N)C(=O)N[C@@H](CCCCN)C(=O)N1CCC[C@H]1C(=O)N[C@H](C(=O)N[C@H](C(=O)N[C@@H](CS)C(=O)N[C@@H](CCCNC(=N)N)C(=O)N[C@@H](CCCCN)C(=O)N1CCC[C@H]1C(=O)N[C@H](C(=O)N[C@H](C(=O)N[C@H](C(N)=O)[C@@H](C)CC)[C@@H](C)CC)[C@@H](C)CC)[C@@H](C)CC)[C@@H](C)CC)[C@@H](C)CC)[C@@H](C)CC)[C@@H](C)CC)[C@@H](C)CC)[C@@H](C)CC)[C@@H](C)CC (H-IIICRKPIICRKPIICRKPIICRKPIII-NH2), the Activity [1] is reported as “Non-Toxic”, the Activity [2] is reported as over 90% and the Activity [3] is reported as “Non-Toxic”. It also gave an MIC [4] of 8 µM, an Activity [5] of 5.08 log10CFU/g and a selectivity ratio [6] of 28.5. For the same compound, the MIC [7] was 8 µM, the Stabilty [8] was “Stable” and the Activity [9] was “Active”. The MIC [10] was 4 µM, the MIC [11] was 32 µM and the selectivity ratio [12] was 57. The selectivity ratio [13] was 28.5, the Activity [14] was “Active” and the MIC [15] was 4 µM (≈ 13.3 µg/mL). The MIC [16] was 4 µM, the hemolysis at up to 128 µM [17] was under 5% and the Activity [18] was “Active”. For the same compound, the Activity [19] was “Active”, the Activity [20] was “Non-Toxic” and the Stabilty [21] was “Stable”. The Activity [22] was “Active”, the Activity [23] was “Active” and the Activity [24] was “Non-Toxic”. For the same compound, the MIC [25] was 8 µM (≈ 26.5 µg/mL), the Activity [26] was “Active” and the Activity [27] was “Active”. The Activity [28] was “Active”, the Activity [29] was “Non-Toxic” and the Activity [30] was “Active”. It also gave an MIC [31] of 8 µM (≈ 26.5 µg/mL), an Activity [32] of over 90% and an MIC [33] of 16 µM. For the same compound, the Activity [34] was 4.89 log10CFU/g, the MIC [35] was 2 µM (≈ 6.63 µg/mL) and the Activity [36] was “Active”. For the same compound, the selectivity ratio [37] was 28.5, the Activity [38] was “Active” and the Activity [39] was “Active”.
